# According to patent US9204653B2, “5-fluoro pyrimidine derivatives” (DOW AGROSCIENCES LLC, priority 2008, dated 2015):
# Where two headings read alike, the source gives them in different places.
# System: Mycosphaerella graminicola; Anamorph: Septoria tritici; Bayer Code SEPTTR
# Test: Leaf blotch of wheat, foliar fungicide treatment, one day protectant (1DP) or three day curative (3DC)
# Type: in vivo, Septoria tritici on wheat plants (variety Yuma)
# Conditions: Zymoseptoria tritici; for pest or weed control at 50 ppm / pest or weed control at 200 ppm: % disease control rating, one day protectant; for pest or weed control at 25 ppm / pest or weed control at 100 ppm: percent control rating; for pest or weed control at 100 ppm: read-out: SEPTTR 3DC 100 ppm
# [1] = 24 h, one day protectant (1DP), 25 ppm (first 1DP column), read-out: SETTTR 1DP 25 ppm
# [2] = 24 h, one day protectant (1DP), 25 ppm as printed (second 1DP column), read-out: SETTTR 1DP 25 ppm
# [3] = 72 h, three day curative (3DC), 25 ppm, read-out: SEPTTR 3DC 25 ppm
SMILES,pest or weed control at 50 ppm (24 h),pest or weed control at 200 ppm (24 h),pest or weed control at 25 ppm [1],pest or weed control at 25 ppm [2],pest or weed control at 25 ppm [3],"pest or weed control at 100 ppm (72 h, three day curative (3DC))"
Fc1ccccc1CNc1nc(OCc2ccc3c(c2)OCO3)ncc1F [Compound 928],76 to 100%,76 to 100%,,,,
COc1ccc(COc2ncc(F)c(NCc3ccc(Cl)cc3)n2)cc1 [Compound 929],51 to 75%,76 to 100%,,,,
Cc1ccc(COc2ncc(F)c(NCc3ccccc3F)n2)cc1 [Compound 930],0 to 25%,76 to 100%,,,,
COc1cccc(COc2ncc(F)c(NCc3cccs3)n2)c1 [Compound 931],,76 to 100%,,,,
C=CCOc1ncc(F)c(N)n1 [Compound 932],76 to 100%,76 to 100%,,,,
Cc1cnc(CNc2nc(OCCc3ccccc3)ncc2F)cn1 [Compound 934],0 to 25%,26 to 50%,,,,
Fc1cnc(OCc2ccccn2)nc1NCc1ccc(Cl)cc1 [Compound 935],26 to 50%,76 to 100%,,,,
Nc1nc(OCCc2ccccc2)ncc1F [Compound 936],76 to 100%,76 to 100%,,,,
Fc1cnc(OCc2cccs2)nc1NCCc1ccccc1 [Compound 937],76 to 100%,76 to 100%,,,,
Fc1ccc(COc2ncc(F)c(NC3CC3)n2)cc1F [Compound 938],,76 to 100%,,,,
Cc1cc(COc2ncc(F)c(N)n2)no1 [Compound 939],0 to 25%,76 to 100%,,,,
Fc1cnc(OCCc2ccccc2)nc1NC1CC1 [Compound 940],0 to 25%,0 to 25%,,,,
Fc1cnc(OCc2ccc(Cl)cc2Cl)nc1NCc1ccc(Cl)cc1 [Compound 942],76 to 100%,76 to 100%,,,,
Fc1ccccc1CNc1nc(OCc2c(Cl)cccc2Cl)ncc1F [Compound 943],51 to 75%,76 to 100%,,,,
Fc1cnc(OCc2ccco2)nc1N1CCOCC1 [Compound 944],0 to 25%,0 to 25%,,,,
Fc1cnc(OCc2cccs2)nc1NCc1ccc(Cl)cc1 [Compound 945],76 to 100%,76 to 100%,,,,
Fc1cnc(OCc2ccco2)nc1NCc1ccc(Cl)cc1 [Compound 946],51 to 75%,76 to 100%,,,,
CC(=O)Nc1nc(OCc2ccc(C(F)(F)F)cc2)ncc1F [Compound 947],76 to 100%,76 to 100%,,,,
Fc1ccccc1CNc1nc(OCCc2ccccc2)ncc1F [Compound 948],0 to 25%,0 to 25%,,,,
Cc1ccc(COc2ncc(F)c(NCc3cccs3)n2)cc1 [Compound 949],51 to 75%,76 to 100%,,,,
Fc1cnc(OCC(F)(F)F)nc1NCc1ccc2c(c1)OCO2 [Compound 950],0 to 25%,0 to 25%,,,,
Cc1ccc(CNc2nc(OCc3ccc(F)cc3)ncc2F)cc1 [Compound 951],51 to 75%,76 to 100%,,,,
Fc1ccccc1CNc1nc(OCc2ccc(OC(F)(F)F)cc2)ncc1F [Compound 953],26 to 50%,76 to 100%,,,,
"COc1ccccc1NC(=O)Nc1nc(O)ncc1F [Compound 954, 1-(5-Fluoro-2-hydroxypyrimidin-4-yl)-3-(2-methoxyphenyl)urea]",,,26 to 50%,26 to 50%,26 to 50%,51 to 75%
"Cc1ccc(COc2ncc(F)c(NS(=O)(=O)c3ccc(C)cc3)n2)cc1 [Compound 955, N-(5-Fluoro-2-(4-methylbenzyloxy)pyrimidin-4-yl)-4-methylbenzenesulfonamide]",,,0 to 25%,0 to 25%,0 to 25%,0 to 25%

SMILES,pest or weed control at 50 ppm (24 h),pest or weed control at 200 ppm (24 h),pest or weed control at 25 ppm [1],pest or weed control at 25 ppm [2],pest or weed control at 25 ppm [3],"pest or weed control at 100 ppm (72 h, three day curative (3DC))"
"O=S(=O)(Nc1nc(O)ncc1F)c1ccccc1 [Compound 956, N-(5-Fluoro-2-hydroxypyrimidin-4-yl)benzenesulfonamide]",,,0 to 25%,0 to 25%,0 to 25%,0 to 25%
"CN(Cc1ccccc1)c1nc(O)ncc1F [Compound 957, 4-(Benzylmethylamino)-5-fluoropyrimidin-2-ol]",,,0 to 25%,0 to 25%,26 to 50%,26 to 50%
Fc1cnc(OCc2ccccc2)nc1/N=N/c1cccc(C(F)(F)F)c1 [Compound 958],,,0 to 25%,0 to 25%,26 to 50%,26 to 50%
"C=CCOc1ncc(F)c(NNC(=O)c2cccc(C)c2)n1 [Compound 959, N′-(2-(allyloxy)-5-fluoropyrimidin-4-yl)-3-methylbenzohydrazide]",,,0 to 25%,0 to 25%,0 to 25%,0 to 25%
"COc1ccc(/C=N/Nc2nc(O)ncc2F)cc1 [Compound 960, (E)-5-Fluoro-4-(2-(4-methoxybenzylidene)hydrazinyl)pyrimidin-2(1H)-one]",,,0 to 25%,0 to 25%,0 to 25%,0 to 25%
"O=CNc1nc(OCc2ccccc2)ncc1F [Compound 961, N-(2-(Benzyloxy)-5-fluoropyrimidin-4-yl)formamide]",,,76 to 100%,76 to 100%,76 to 100%,76 to 100%
"Nc1nc(OCOC(=O)C2CCCC2)ncc1F [Compound 962, (4-amino-5-fluoropyrimidin-2-yloxy)methyl cyclopentanecarboxylate]",,,76 to 100%,76 to 100%,76 to 100%,76 to 100%
"N#CNc1nc(OCc2ccccc2)ncc1F [Compound 963, 2-Benzyloxy-5-fluoro-pyrimidin-4-yl-cyanamide]",,,0 to 25%,0 to 25%,26 to 50%,0 to 25%
"N=C(NO)Nc1nc(OCc2ccccc2)ncc1F [Compound 964, 1-[2-(Benzyloxy)-5-fluoropyrimidin-4-yl]-3-hydroxyguanidine]",,,0 to 25%,0 to 25%,0 to 25%,26 to 50%
O=C(Nc1nc(O)ncc1F)c1ccc(Cl)nc1 [Compound 965],,,26 to 50%,76 to 100%,26 to 50%,26 to 50%
O=C(Nc1ccccc1Cl)Nc1nc(O)ncc1F [Compound 966],,,26 to 50%,51 to 75%,51 to 75%,51 to 75%
O=C(Nc1ccccc1)Nc1nc(O)ncc1F [Compound 967],,,26 to 50%,26 to 50%,51 to 75%,51 to 75%
Cc1ccc(NC(=O)Nc2nc(O)ncc2F)cc1 [Compound 968],,,51 to 75%,51 to 75%,51 to 75%,51 to 75%
O=C(NCc1ccccc1)Nc1nc(O)ncc1F [Compound 969],,,26 to 50%,26 to 50%,26 to 50%,51 to 75%
O=C(NCc1ccccc1F)Nc1nc(O)ncc1F [Compound 970],,,26 to 50%,51 to 75%,26 to 50%,26 to 50%
CC(C)NC(=O)Nc1nc(O)ncc1F [Compound 971],,,26 to 50%,26 to 50%,51 to 75%,76 to 100%
CCCCCNC(=O)Nc1nc(O)ncc1F [Compound 972],,,51 to 75%,76 to 100%,51 to 75%,51 to 75%
O=C(Nc1nc(O)ncc1F)NC1CCCC1 [Compound 973],,,26 to 50%,26 to 50%,76 to 100%,51 to 75%
O=C(/C=C/c1ccccc1)Nc1nc(O)ncc1F [Compound 974],,,51 to 75%,76 to 100%,51 to 75%,26 to 50%
CC(C)(C)NC(=O)Nc1nc(O)ncc1F [Compound 975],,,0 to 25%,0 to 25%,0 to 25%,0 to 25%
CCOC(=O)CNC(=O)Nc1nc(O)ncc1F [Compound 976],,,0 to 25%,0 to 25%,0 to 25%,0 to 25%
Cc1coc(C)c1C(=O)Nc1nc(O)ncc1F [Compound 977],,,0 to 25%,51 to 75%,0 to 25%,76 to 100%
Cn1ncc(C(=O)Nc2nc(O)ncc2F)c1Cl [Compound 978],,,0 to 25%,0 to 25%,0 to 25%,0 to 25%
O=C(Nc1nc(O)ncc1F)c1ccsc1 [Compound 979],,,0 to 25%,26 to 50%,0 to 25%,51 to 75%
